Reference: patent US4129737A, “Process for the preparation of an 8-alkyl-5-oxo-5,8-dihydro-pyrido(2,3-d)pyrimidine-6-carboxylic acid” (priority 1972, dated 1978)
Converted amounts (≈) assume the structure as drawn. Read-outs that look alike come from different tables or passages of the source.

Assays:
Format in all cases: cell-based
[1] = tested on: Gram-negative microorganisms; assay: In vitro anti-microbial activity on agar media, overall; conditions: in vitro
Procedure: (§1) The products were tested on three Gram positive microorganisms (1 to 3) […] and on 10 Gram negative microorganisms (4 to 13).

Staphylococcus 209 P = assay: Minimum inhibitory concentration by agar dilution, Staphylococcus 209 P
Procedure: (§2) (a) Trypticase soya medium (T.S.A.), which is very suitable for culturing the majority of microorganisms; it has the following composition:
(§3) (b) Ordinarily nutrient agar (N.A.), which is less rich in nutrients, corresponds to the following formulation: […]
(§4) Table I gives the minimum inhibitory concentrations (expressed in μg/cm^3) for the various microorganisms tested on each medium.
as §1
(§5) Table (II) gives the minimum inhibitory concentrations of the compounds of Examples XII to XVI, determined on the agar medium, N.A., and expressed in μg/cm^3.

Bord. bronchiseptica = assay: Minimum inhibitory concentration by agar dilution, Bord. bronchiseptica; conditions: Bordetella bronchiseptica
Procedure: as §2, §3, §4, §1, §5

Pr. mirabilis = assay: Minimum inhibitory concentration by agar dilution, Pr. mirabilis; conditions: Proteus mirabilis
Procedure: as §2, §3, §4, §1, §5

Esch. Coli 95 = assay: Minimum inhibitory concentration by agar dilution, Esch. Coli 95; conditions: Escherichia coli
Procedure: as §2, §3, §4, §1, §5

Pr. vulgaris = assay: Minimum inhibitory concentration by agar dilution, Pr. vulgaris; conditions: Proteus vulgaris
Procedure: as §2, §3, §4, §1, §5

Streptococcus = assay: Minimum inhibitory concentration by agar dilution, Streptococcus Group A
Procedure: as §2, §3, §4, §1, §5

B. pyocyaneus TUR = assay: Minimum inhibitory concentration by agar dilution, B. pyocyaneus TUR; conditions: Pseudomonas aeruginosa, 37° C., 18 hours
Procedure: as §2, §3, §4, §1

Salm. typhi = assay: Minimum inhibitory concentration by agar dilution, Salm. typhi; conditions: Salmonella enterica, 18 h
Procedure: as §2, §3, §4, §1, §5

Sh. sonnei = assay: Minimum inhibitory concentration by agar dilution, Sh. sonnei; conditions: Shigella sonnei
Procedure: as §2, §3, §4, §1, §5

Pr. morganii = assay: Minimum inhibitory concentration by agar dilution, Pr. morganii; conditions: Morganella morganii
Procedure: as §2, §3, §4, §1, §5

B. subtilis = assay: Minimum inhibitory concentration by agar dilution, B. subtilis; conditions: Bacillus subtilis
Procedure: as §2, §3, §4, §1, §5

B. pyocyaneus A22 = assay: Minimum inhibitory concentration by agar dilution, B. pyocyaneus A22; conditions: Pseudomonas aeruginosa
Procedure: as §2, §3, §4, §1, §5

Klebs. pneumoniae = assay: Minimum inhibitory concentration by agar dilution, Klebs. pneumoniae; conditions: Klebsiella pneumoniae
Procedure: as §2, §3, §4, §1, §5

[2] = Staphylococcus, N.A. (nutrient agar, pH 6.8), 37° C., 18 hours, Table I, read-out: minimum inhibitory concentration (M.I.C.)
[3] = Staphylococcus, T.S.A. (trypticase soya medium, pH 7.3), 37° C., 18 hours, read-out: minimum inhibitory concentration (M.I.C.)
[4] = N.A. (nutrient agar, pH 6.8), 37° C., 18 hours, Table I, read-out: minimum inhibitory concentration (M.I.C.)
[5] = T.S.A. (trypticase soya medium, pH 7.3), 37° C., 18 hours, read-out: minimum inhibitory concentration (M.I.C.)
[6] = N.A. (nutrient agar, pH 6.8), Table I
[7] = T.S.A. (trypticase soya medium, pH 7.3), read-out: minimum inhibitory concentration (M.I.C.)
[8] = pH 6.8, read-out: minimum inhibitory concentration (M.I.C.)
[9] = pH 7.3, read-out: minimum inhibitory concentration (M.I.C.)
[10] = A22, N.A. (nutrient agar, pH 6.8), 37° C., 18 hours, Table I, read-out: minimum inhibitory concentration (M.I.C.)
[11] = A22, T.S.A. (trypticase soya medium, pH 7.3), 37° C., 18 hours, read-out: minimum inhibitory concentration (M.I.C.)
[12] = 18 h, pH 7.3, read-out: minimum inhibitory concentration (M.I.C.)
[13] = 18 h, pH 6.8, read-out: minimum inhibitory concentration (M.I.C.)
[14] = 18 h, agar medium, N.A., Table II, read-out: minimum inhibitory concentration

Compound	MIC (Staphylococcus 209 P; [2]) [µg/mL]	MIC (Bord. bronchiseptica; [5]) [µg/mL]	MIC (Pr. mirabilis; [4]) [µg/mL]	MIC (Esch. Coli 95; [4]) [µg/mL]	MIC (Esch. Coli 95; [5]) [µg/mL]	MIC (Pr. vulgaris; [4]) [µg/mL]	MIC (Pr. vulgaris; [5]) [µg/mL]	MIC (Streptococcus; [4]) [µg/mL]	MIC (B. pyocyaneus TUR; [6]) [µg/mL]	MIC (B. pyocyaneus TUR; [7]) [µg/mL]	MIC (Salm. typhi; [8]) [µg/mL]	MIC (Salm. typhi; [9]) [µg/mL]	MIC (Sh. sonnei; [4]) [µg/mL]	MIC (Sh. sonnei; [5]) [µg/mL]	MIC (Pr. morganii; [4]) [µg/mL]	MIC (Pr. morganii; [5]) [µg/mL]	MIC (B. subtilis; [5]) [µg/mL]	MIC (B. pyocyaneus A22; [10]) [µg/mL]	MIC (B. pyocyaneus A22; [11]) [µg/mL]	MIC (Klebs. pneumoniae; [4]) [µg/mL]	further results
CCn1cc(C(=O)O)c(=O)c2cnc(N3CCN(C)CC3)nc21 [Example V, 2-(4'-Methyl-piperazino)-5-oxo-8-ethyl-5,8-dihydro-pyrido(2,3-d)pyrimidine-6-carboxylic acid]	3.1 (≈ 9.77 µM)	100 (≈ 315 µM)	6.2 (≈ 19.5 µM)	0.8 (≈ 2.52 µM)	6.2 (≈ 19.5 µM)	1.6 (≈ 5.04 µM)	6.2 (≈ 19.5 µM)	25 (≈ 78.8 µM)	50 (≈ 158 µM)	100 (≈ 315 µM)	3.1 (≈ 9.77 µM)	3.1 (≈ 9.77 µM)	0.8 (≈ 2.52 µM)	1.6 (≈ 5.04 µM)	0.8 (≈ 2.52 µM)	1.6 (≈ 5.04 µM)	6.2 (≈ 19.5 µM)	12.5 (≈ 39.4 µM)	100 (≈ 315 µM)	0.4 (≈ 1.26 µM)	activity against Gram-negative microorganisms [1]: particularly active against Gram-negative microorganisms; MIC (Staphylococcus 209 P; [3]): 100 µg/mL (≈ 315 µM); MIC (Bord. bronchiseptica; [4]): 50 µg/mL (≈ 158 µM); MIC (Pr. mirabilis; [5]): 6.2 µg/mL (≈ 19.5 µM); MIC (Streptococcus; [5]): 6.2 µg/mL (≈ 19.5 µM); MIC (B. subtilis; [4]): 1.6 µg/mL (≈ 5.04 µM); MIC (Klebs. pneumoniae; [5]): 6.2 µg/mL (≈ 19.5 µM)
CCn1cc(C(=O)O)c(=O)c2cnc(N3CCN(CCO)CC3)nc21 [Example VI, 2-(4-β-Hydroxyethyl-piperazino)-5-oxo-8-ethyl-5,8-dihydropyrido(2,3-d)pyrimidine-6-carboxylic acid]	3.1 (≈ 8.92 µM)	> 100	3.1 (≈ 8.92 µM)	1.6 (≈ 4.61 µM)	3.1 (≈ 8.92 µM)	50 (≈ 144 µM)	6.2 (≈ 17.8 µM)	3.1 (≈ 8.92 µM)	50 (≈ 144 µM)	> 100	12.5 (≈ 36 µM)	6.2 (≈ 17.8 µM)	1.6 (≈ 4.61 µM)	1.6 (≈ 4.61 µM)	1.6 (≈ 4.61 µM)	1.6 (≈ 4.61 µM)	3.1 (≈ 8.92 µM)	50 (≈ 144 µM)	> 100	0.4 (≈ 1.15 µM)	activity against Gram-negative microorganisms [1]: particularly active against Gram-negative microorganisms; MIC (Staphylococcus 209 P; Staphylococcus, 18 h, pH 7.3, read-out: minimum inhibitory concentration (M.I.C.)): 12.5 µg/mL (≈ 36 µM); MIC (Bord. bronchiseptica; [4]): 50 µg/mL (≈ 144 µM); MIC (Pr. mirabilis; [12]): 12.5 µg/mL (≈ 36 µM); MIC (Streptococcus; [12]): 12.5 µg/mL (≈ 36 µM); MIC (B. subtilis; [4]): 1.6 µg/mL (≈ 4.61 µM); MIC (Klebs. pneumoniae; [5]): 1.6 µg/mL (≈ 4.61 µM)
Cn1cc(C(=O)O)c(=O)c2cnc(N3CCN(CCO)CC3)nc21 [Example XI, 2-(4'-β-Hydroxyethyl-piperazino)-5-oxo-8-methyl-5,8-dihydropyrido(2,3-d)pyrimidine-6-carboxylic acid]	25 (≈ 75 µM)	100 (≈ 300 µM)	6.2 (≈ 18.6 µM)	1.6 (≈ 4.8 µM)	25 (≈ 75 µM)	25 (≈ 75 µM)	50 (≈ 150 µM)	25 (≈ 75 µM)	100 (≈ 300 µM)	> 100	6.2 (≈ 18.6 µM)	50 (≈ 150 µM)	1.6 (≈ 4.8 µM)	12.5 (≈ 37.5 µM)	3.1 (≈ 9.3 µM)	25 (≈ 75 µM)	100 (≈ 300 µM)	100 (≈ 300 µM)	> 100	3.1 (≈ 9.3 µM)	MIC (Staphylococcus 209 P; [3]): > 100 µg/mL; MIC (Bord. bronchiseptica; [13]): 12.5 µg/mL (≈ 37.5 µM); MIC (Pr. mirabilis; [5]): 25 µg/mL (≈ 75 µM); MIC (Streptococcus; [5]): > 100 µg/mL; MIC (B. subtilis; [13]): 12.5 µg/mL (≈ 37.5 µM); MIC (Klebs. pneumoniae; [12]): 12.5 µg/mL (≈ 37.5 µM)
CCN1CCN(c2ncc3c(=O)c(C(=O)O)cn(CC)c3n2)CC1 [Example XII, 2-(4'-Ethyl-piperazino)-5-oxo-8-ethyl-5,8-dihydro-pyrido(2,3-d)pyrimidine-6-carboxylic acid]																					MIC (Staphylococcus 209 P; 18 h, agar medium, N.A., Table II (Staphylococcus 20 P [sic]), read-out: minimum inhibitory concentration): 1.6 µg/mL (≈ 4.83 µM); MIC (Bord. bronchiseptica; [14]): 100 µg/mL (≈ 302 µM); MIC (Pr. mirabilis; [14]): 6.2 µg/mL (≈ 18.7 µM); MIC (Esch. Coli 95; [14]): 0.8 µg/mL (≈ 2.41 µM); MIC (Pr. vulgaris; [14]): 0.8 µg/mL (≈ 2.41 µM); MIC (Streptococcus; [14]): 3.1 µg/mL (≈ 9.35 µM); MIC (Salm. typhi; read-out: minimum inhibitory concentration): 0.8 µg/mL (≈ 2.41 µM); MIC (Sh. sonnei; [14]): 0.8 µg/mL (≈ 2.41 µM); MIC (Pr. morganii; [14]): 0.8 µg/mL (≈ 2.41 µM); MIC (B. subtilis; [14]): 100 µg/mL (≈ 302 µM); MIC (B. pyocyaneus A22; A22, 18 h, agar medium, N.A., Table II, read-out: minimum inhibitory concentration): 100 µg/mL (≈ 302 µM); MIC (Klebs. pneumoniae; [14]): 0.4 µg/mL (≈ 1.21 µM)
